Measurements published in patent US20230085307A1, “PYRIDAZINONE COMPOUND AND HERBICIDE” (NISSAN CHEMICAL CORPORATION, priority 2019, published 2023).

Tests used:
velvetleaf [1] = assay: Test Example 4: herbicidal effect by soil treatment (Table 19, symbol M); assay type: in vivo, velvetleaf (Abutilon theophrasti); conditions: amount of applied herbicide 320 g/ha
Method in brief: (§1)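 In this soil treatment, the formulated compound reached the seeds only through the soil: seeds were buried about 1.5 cm deep in sterilized diluvial soil, then the diluted emulsion was sprayed over the surface. After three weeks at 25° C. to 30° C. in a greenhouse, effects were graded on criteria from an earlier test.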

chickweed [2] = assay: Test Example 4: herbicidal effect by soil treatment (Table 19, symbol P); assay type: in vivo, common chickweed (Stellaria media); conditions: amount of applied herbicide 320 g/ha
Method in brief: as §1

redroot pigweed [3] = assay: Test Example 4: herbicidal effect by soil treatment (Table 19, symbol N); assay type: in vivo, redroot pigweed (Amaranthus retroflexus); conditions: amount of applied herbicide 320 g/ha
Method in brief: as §1

southern crabgrass [4] = assay: Test Example 5: herbicidal effect by foliage application, plastic box (Table 20, symbol F); assay type: in vivo, southern crabgrass (Digitaria ciliaris); conditions: foliage application
Method in brief: (§2)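 Plants were sown into sterilized diluvial soil under about 1.5 cm cover and kept in a greenhouse at 25° C. to 30° C. Fourteen days on, foliage received an even spray of the diluted emulsion. Herbicidal or crop effect was judged three weeks afterwards.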

barnyard grass [5] = assay: Test Example 4: herbicidal effect by soil treatment (Table 19, symbol H); assay type: in vivo, barnyard grass (Echinochloa crus-galli); conditions: amount of applied herbicide 320 g/ha
Method in brief: as §1

windgrass [6] = assay: Test Example 4: herbicidal effect by soil treatment (Table 19, symbol L); assay type: in vivo, windgrass (Apera spica-venti); conditions: amount of applied herbicide 320 g/ha
Method in brief: as §1

persian speedwell [7] = assay: Test Example 5: herbicidal effect by foliage application, plastic box (Table 20, symbol R); assay type: in vivo, Persian speedwell (Veronica persica); conditions: foliage application
Method in brief: as §2

velvetleaf [8] = assay: Test Example 5: herbicidal effect by foliage application, plastic box (Table 20, symbol M); assay type: in vivo, velvetleaf (Abutilon theophrasti); conditions: foliage application
Method in brief: as §2

lambsquarters [9] = assay: Test Example 4: herbicidal effect by soil treatment (Table 19, symbol O); assay type: in vivo, lambsquarters (Chenopodium album); conditions: amount of applied herbicide 320 g/ha
Method in brief: as §1

barnyard grass [10] = assay: Test Example 3: herbicidal effect by foliage application, Wagner pot (Table 18, symbol H); assay type: in vivo, barnyard grass (Echinochloa crus-galli); conditions: 320 g/ha
Method in brief: (§3)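 Plants were sown in alluvial soil held under 0.1–0.5 cm standing water and grown 14 days in a greenhouse at 25–30 °C. An emulsifiable formulation, water-diluted to the set dose, was then sprayed onto the foliage, and effects were scored three weeks later using previously defined criteria.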

redroot pigweed [11] = assay: Test Example 5: herbicidal effect by foliage application, plastic box (Table 20, symbol N); assay type: in vivo, redroot pigweed (Amaranthus retroflexus); conditions: foliage application
Method in brief: as §2

windgrass [12] = assay: Test Example 5: herbicidal effect by foliage application, plastic box (Table 20, symbol L); assay type: in vivo, windgrass (Apera spica-venti); conditions: foliage application
Method in brief: as §2

Japanese bulrush = assay: Test Example 1: herbicidal activity, application before weed generation under submerged conditions (Table 16, symbol B); assay type: in vivo, Japanese bulrush (Schoenoplectus juncoides); conditions: amount of applied herbicide 320 g/ha
Method in brief: (§4)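 Emulsion formulation, water-diluted to set dose, was put onto the flooded surface (4 cm depth, alluvial soil) the same day weeds were sown and 2.5-leaf rice transplanted. After 3 weeks at 25-30 °C under glass, each species was rated 0 (≤5% kill) to 5 (≥90% kill).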

green foxtail [13] = assay: Test Example 5: herbicidal effect by foliage application, plastic box (Table 20, symbol G); assay type: in vivo, green foxtail (Setaria viridis); conditions: foliage application
Method in brief: as §2

chickweed [14] = assay: Test Example 5: herbicidal effect by foliage application, plastic box (Table 20, symbol P); assay type: in vivo, common chickweed (Stellaria media); conditions: foliage application
Method in brief: as §2

blackgrass [15] = assay: Test Example 5: herbicidal effect by foliage application, plastic box (Table 20, symbol J); assay type: in vivo, blackgrass (Alopecurus myosuroides); conditions: foliage application
Method in brief: as §2

wild oat [16] = assay: Test Example 5: herbicidal effect by foliage application, plastic box (Table 20, symbol I); assay type: in vivo, wild oat (Avena fatua); conditions: foliage application
Method in brief: as §2

Italian ryegrass [17] = assay: Test Example 4: herbicidal effect by soil treatment (Table 19, symbol K); assay type: in vivo, Italian ryegrass (Lolium multiflorum); conditions: amount of applied herbicide 320 g/ha
Method in brief: as §1

green foxtail [18] = assay: Test Example 4: herbicidal effect by soil treatment (Table 19, symbol G); assay type: in vivo, green foxtail (Setaria viridis); conditions: amount of applied herbicide 320 g/ha
Method in brief: as §1

Chinese sprangletop = assay: Test Example 3: herbicidal effect by foliage application, Wagner pot (Table 18, symbol D); assay type: in vivo, chinese sprangletop (Leptochloa chinensis)
Method in brief: as §3

wild oat [19] = assay: Test Example 4: herbicidal effect by soil treatment (Table 19, symbol I); assay type: in vivo, wild oat (Avena fatua); conditions: amount of applied herbicide 320 g/ha
Method in brief: as §1

barnyard grass [20] = assay: Test Example 5: herbicidal effect by foliage application, plastic box (Table 20, symbol H); assay type: in vivo, barnyard grass (Echinochloa crus-galli); conditions: foliage application
Method in brief: as §2

false cleavers = assay: Test Example 4: herbicidal effect by soil treatment (Table 19, symbol Q); assay type: in vivo, false cleavers (Galium spurium); conditions: amount of applied herbicide 320 g/ha
Method in brief: as §1

oval-leafed pondweed = assay: Test Example 1: herbicidal activity, application before weed generation under submerged conditions (Table 16, symbol C); assay type: in vivo, oval-leafed pondweed (Monochoria vaginalis); conditions: amount of applied herbicide 320 g/ha
Method in brief: as §4

late watergrass = assay: Test Example 1: herbicidal activity, application before weed generation under submerged conditions (Table 16, symbol A); assay type: in vivo, late watergrass (Echinochloa oryzicola); conditions: amount of applied herbicide 320 g/ha
Method in brief: as §4

lambsquarters [21] = assay: Test Example 5: herbicidal effect by foliage application, plastic box (Table 20, symbol O); assay type: in vivo, lambsquarters (Chenopodium album); conditions: foliage application
Method in brief: as §2

Italian ryegrass [22] = assay: Test Example 5: herbicidal effect by foliage application, plastic box (Table 20, symbol K); assay type: in vivo, Italian ryegrass (Lolium multiflorum); conditions: foliage application
Method in brief: as §2

blackgrass [23] = assay: Test Example 4: herbicidal effect by soil treatment (Table 19, symbol J); assay type: in vivo, blackgrass (Alopecurus myosuroides); conditions: amount of applied herbicide 320 g/ha
Method in brief: as §1

rice flat sedge = assay: Test Example 3: herbicidal effect by foliage application, Wagner pot (Table 18, symbol E); assay type: in vivo, rice flat sedge (Cyperus iria)
Method in brief: as §3

southern crabgrass [24] = assay: Test Example 4: herbicidal effect by soil treatment (Table 19, symbol F); assay type: in vivo, southern crabgrass (Digitaria ciliaris); conditions: amount of applied herbicide 320 g/ha
Method in brief: as §1

persian speedwell [25] = assay: Test Example 4: herbicidal effect by soil treatment (Table 19, symbol R); assay type: in vivo, Persian speedwell (Veronica persica); conditions: amount of applied herbicide 320 g/ha
Method in brief: as §1

[26] = 320 g/ha, three weeks after application
[27] = AAH 320 g/ha, evaluated three weeks after application
[28] = amount of applied herbicide 320 g/ha

COc1ccccc1-c1sc2cc(Cl)ccc2c1-c1c(O)c(C)nn(C)c1=O [3-035]
M: velvetleaf, herbicidal effect grade (velvetleaf [1]): 3 (Herbicidal rate of 40% or more and less than 70%) | P: chickweed, herbicidal effect grade (chickweed [2]): 4 (Herbicidal rate of 70% or more and less than 90%) | N: redroot pigweed, herbicidal effect grade (redroot pigweed [3]): 4 (Herbicidal rate of 70% or more and less than 90%) | F: southern crabgrass, herbicidal effect grade (southern crabgrass [4]; [26]): 4 (Herbicidal rate of 70% or more and less than 90%) | H: barnyard grass, herbicidal effect grade (barnyard grass [5]): 5 (Herbicidal rate of 90% or more (almost completely withered)) | L: windgrass, herbicidal effect grade (windgrass [6]): 0 (Herbicidal rate of 5% or less (almost no effect)) | R: persian speedwell, herbicidal effect grade (persian speedwell [7]; [26]): 5 (Herbicidal rate of 90% or more (almost completely withered)) | M: velvetleaf, herbicidal effect grade (velvetleaf [8]; [26]): 4 (Herbicidal rate of 70% or more and less than 90%) | O: lambsquarters, herbicidal effect grade (lambsquarters [9]): 5 (Herbicidal rate of 90% or more (almost completely withered)) | herbicidal effect on barnyard grass (H) (barnyard grass [10]): 4 (Herbicidal rate of 70% or more and less than 90%) | N: redroot pigweed, herbicidal effect grade (redroot pigweed [11]; [26]): 4 (Herbicidal rate of 70% or more and less than 90%) | L: windgrass, herbicidal effect grade (windgrass [12]; [26]): 4 (Herbicidal rate of 70% or more and less than 90%) | Herbicidal effect, B: Japanese bulrush (Japanese bulrush): 3 (Herbicidal rate of 40% or more and less than 70%) | G: green foxtail, herbicidal effect grade (green foxtail [13]; [26]): 5 (Herbicidal rate of 90% or more (almost completely withered)) | P: chickweed, herbicidal effect grade (chickweed [14]; [26]): 5 (Herbicidal rate of 90% or more (almost completely withered)) | J: blackgrass, herbicidal effect grade (blackgrass [15]; [26]): 3 (Herbicidal rate of 40% or more and less than 70%) | I: wild oat, herbicidal effect grade (wild oat [16]; [26]): 3 (Herbicidal rate of 40% or more and less than 70%) | K: Italian ryegrass, herbicidal effect grade (Italian ryegrass [17]): 2 (Herbicidal rate of 20% or more and less than 40%) | G: green foxtail, herbicidal effect grade (green foxtail [18]): 4 (Herbicidal rate of 70% or more and less than 90%) | herbicidal effect on Chinese sprangletop (D) (Chinese sprangletop; 320 g/ha): 3 (Herbicidal rate of 40% or more and less than 70%) | I: wild oat, herbicidal effect grade (wild oat [19]): 0 (Herbicidal rate of 5% or less (almost no effect)) | H: barnyard grass, herbicidal effect grade (barnyard grass [20]; [26]): 4 (Herbicidal rate of 70% or more and less than 90%) | Q: false cleavers, herbicidal effect grade (false cleavers): 3 (Herbicidal rate of 40% or more and less than 70%) | Herbicidal effect, C: oval-leafed pondweed (oval-leafed pondweed): 0 (Herbicidal rate of 5% or less (almost no effect)) | Herbicidal effect, A: late watergrass (late watergrass): 3 (Herbicidal rate of 40% or more and less than 70%) | O: lambsquarters, herbicidal effect grade (lambsquarters [21]; [26]): 4 (Herbicidal rate of 70% or more and less than 90%) | K: Italian ryegrass, herbicidal effect grade (Italian ryegrass [22]; [26]): 3 (Herbicidal rate of 40% or more and less than 70%) | J: blackgrass, herbicidal effect grade (blackgrass [23]): 3 (Herbicidal rate of 40% or more and less than 70%) | herbicidal effect on rice flat sedge (E) (rice flat sedge; 320 g/ha): 5 (Herbicidal rate of 90% or more (almost completely withered)) | F: southern crabgrass, herbicidal effect grade (southern crabgrass [24]): 3 (Herbicidal rate of 40% or more and less than 70%) | R: persian speedwell, herbicidal effect grade (persian speedwell [25]): 1 (Herbicidal rate of 5% or more and less than 20%)

CCn1nc(C)c(O)c(-c2c(-c3ccc(F)cc3)sc3ccc(F)cc23)c1=O [2-398]
herbicidal effect, M: velvetleaf (velvetleaf [1]): 1 (Herbicidal rate of 5% or more and less than 20%) | herbicidal effect, P: chickweed (chickweed [2]): 0 (Herbicidal rate of 5% or less (almost no effect)) | herbicidal effect, N: redroot pigweed (redroot pigweed [3]): 4 (Herbicidal rate of 70% or more and less than 90%) | F: southern crabgrass, herbicidal effect (criteria 0-5) (southern crabgrass [4]; [27]): 4 (Herbicidal rate of 70% or more and less than 90%) | herbicidal effect, H: barnyard grass (barnyard grass [5]): 2 (Herbicidal rate of 20% or more and less than 40%) | herbicidal effect, L: windgrass (windgrass [6]): 0 (Herbicidal rate of 5% or less (almost no effect)) | R: persian speedwell, herbicidal effect (criteria 0-5) (persian speedwell [7]; [27]): 5 (Herbicidal rate of 90% or more (almost completely withered)) | M: velvetleaf, herbicidal effect (criteria 0-5) (velvetleaf [8]; [27]): 5 (Herbicidal rate of 90% or more (almost completely withered)) | herbicidal effect, O: lambsquarters (lambsquarters [9]): 3 (Herbicidal rate of 40% or more and less than 70%) | N: redroot pigweed, herbicidal effect (criteria 0-5) (redroot pigweed [11]; [27]): 5 (Herbicidal rate of 90% or more (almost completely withered)) | L: windgrass, herbicidal effect (criteria 0-5) (windgrass [12]; [27]): 0 (Herbicidal rate of 5% or less (almost no effect)) | Herbicidal effect, B: Japanese bulrush (Japanese bulrush): 3 (Herbicidal rate of 40% or more and less than 70%) | G: green foxtail, herbicidal effect (criteria 0-5) (green foxtail [13]; [27]): 4 (Herbicidal rate of 70% or more and less than 90%) | P: chickweed, herbicidal effect (criteria 0-5) (chickweed [14]; [27]): 5 (Herbicidal rate of 90% or more (almost completely withered)) | J: blackgrass, herbicidal effect (criteria 0-5) (blackgrass [15]; [27]): 0 (Herbicidal rate of 5% or less (almost no effect)) | I: wild oat, herbicidal effect (criteria 0-5) (wild oat [16]; [27]): 0 (Herbicidal rate of 5% or less (almost no effect)) | herbicidal effect, K: Italian ryegrass (Italian ryegrass [17]): 4 (Herbicidal rate of 70% or more and less than 90%) | herbicidal effect, G: green foxtail (green foxtail [18]): 3 (Herbicidal rate of 40% or more and less than 70%) | herbicidal effect on D: Chinese sprangletop (Chinese sprangletop; [28]): 0 (Herbicidal rate of 5% or less (almost no effect)) | herbicidal effect, I: wild oat (wild oat [19]): 0 (Herbicidal rate of 5% or less (almost no effect)) | H: barnyard grass, herbicidal effect (criteria 0-5) (barnyard grass [20]; [27]): 5 (Herbicidal rate of 90% or more (almost completely withered)) | herbicidal effect, Q: false cleavers (false cleavers): 0 (Herbicidal rate of 5% or less (almost no effect)) | Herbicidal effect, C: oval-leafed pondweed (oval-leafed pondweed): 0 (Herbicidal rate of 5% or less (almost no effect)) | Herbicidal effect, A: late watergrass (late watergrass): 3 (Herbicidal rate of 40% or more and less than 70%) | O: lambsquarters, herbicidal effect (criteria 0-5) (lambsquarters [21]; [27]): 4 (Herbicidal rate of 70% or more and less than 90%) | K: Italian ryegrass, herbicidal effect (criteria 0-5) (Italian ryegrass [22]; [27]): 4 (Herbicidal rate of 70% or more and less than 90%) | herbicidal effect, J: blackgrass (blackgrass [23]): 0 (Herbicidal rate of 5% or less (almost no effect)) | herbicidal effect on E: rice flat sedge (rice flat sedge; [28]): 3 (Herbicidal rate of 40% or more and less than 70%) | herbicidal effect, F: southern crabgrass (southern crabgrass [24]): 3 (Herbicidal rate of 40% or more and less than 70%) | herbicidal effect, R: persian speedwell (persian speedwell [25]): 1 (Herbicidal rate of 5% or more and less than 20%)
